What was measured:
BACE1 [1] = molecular target: T1, BACE1 (Homo sapiens (Human), UniProt P56817); assay: In vitro BACE1 cell-based assay (Aβ40 in conditioned medium of cells stably expressing APP, HTRF)
Protocol: In Vitro BACE1 Cell-Based Assay
The cell-based assay measures inhibition or reduction of Aβ40 in conditioned medium of test compound treated cells expressing amyloid precursor protein. Cells stably expressing Amyloid Precursor Protein (APP) were plated at a density of 45K cells/well in 384 well plates (Corning/BioCoat 354663). The test compounds were then added to cells in 22-point dose response concentrations with the starting concentration being 62.5 μM. The compounds were diluted from stock solutions in DMSO and the final DMSO concentration of the test compounds on cells was 0.625%. The cells were cultivated overnight at 37° C. and 5% CO2 in DMEM supplemented with 10% FBS. After 24 h of incubation with the test compounds, the conditioned media was collected and the Aβ40 levels were determined using HTRF (Homogeneous Time Resolved Fluorescence). The IC50 of the compound was calculated from the percent of control or percent inhibition of Aβ40 as a function of the concentration of the test compound.
The HTRF to detect Aβ40 was performed in 384 well plates (Costar 3658). The antibody pair that were used to detect Aβ40 from cell supernatants were ConfAb40 antibody (Amgen in-house) and biotinylated 6E10 (BIOLEGEND). As an alternative to ConfAb40, a commercially available antibody, Anti-beta Amyloid 1-40 antibody [BDI350] from Abcam, Cambridge, Mass. 02139-1517 (Product code: ab20068), may be used in this assay. The concentrations were 0.35 μg/mL of ConfAb40 antibody and 1.33 μg/mL of 6E10-biotinylated antibody, as well as 4.5 μg/mL of Streptavidin Allophycocyanin Conjugate (ThermoFisher Scientific) in HTRF Buffer ([…], 1% BSA, 0.5% Tween 20).
The conditioned media was incubated with above antibodies and Streptavidin Allophycocyanin Conjugate for 30-60 minutes at 23° C. The final readout was performed on Envision from PerkinElmer.
Target sequence in this assay (P56817 46-501, species assumed): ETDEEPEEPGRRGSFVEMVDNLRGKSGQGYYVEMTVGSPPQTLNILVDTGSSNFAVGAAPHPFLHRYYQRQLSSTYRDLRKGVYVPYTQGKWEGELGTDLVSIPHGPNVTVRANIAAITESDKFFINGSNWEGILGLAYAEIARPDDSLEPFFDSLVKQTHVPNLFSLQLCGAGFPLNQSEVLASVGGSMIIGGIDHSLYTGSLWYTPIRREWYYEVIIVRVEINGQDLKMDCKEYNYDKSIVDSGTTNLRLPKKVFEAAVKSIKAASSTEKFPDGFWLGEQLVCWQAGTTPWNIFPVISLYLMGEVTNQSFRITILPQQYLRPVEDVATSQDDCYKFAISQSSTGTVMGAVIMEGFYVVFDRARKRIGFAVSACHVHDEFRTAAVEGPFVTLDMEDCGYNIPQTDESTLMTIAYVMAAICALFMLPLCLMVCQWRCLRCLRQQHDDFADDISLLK

Recombinant CatD = Recombinant CatD (Homo sapiens (Human), UniProt P07339); assay: In vitro enzymatic Cathepsin D (CatD) FRET assay; assay type: biochemical; settings: pH 3.5, read-out: Cat D Enzyme IC50
human recombinant BACE2 = human recombinant BACE2 (Homo sapiens (Human), UniProt Q9Y5Z0); assay: In vitro enzymatic BACE2 FRET assay; assay type: biochemical; settings: pH 4.5, read-out: BACE2 Enzyme IC50
BACE1 [2] = molecular target: T1, BACE1; assay: In vitro enzymatic BACE1 FRET assay; assay type: biochemical; settings: pH 4.5, read-out: BACE1 Enzyme IC50
Target sequence in this assay (P56817 46-501): as the sequence (P56817 46-501, species assumed) above

[3] = Aβ40, 24 h incubation, read-out: BACE1 Cell IC50

human recombinant BACE2, sequence (Q9Y5Z0 63-518): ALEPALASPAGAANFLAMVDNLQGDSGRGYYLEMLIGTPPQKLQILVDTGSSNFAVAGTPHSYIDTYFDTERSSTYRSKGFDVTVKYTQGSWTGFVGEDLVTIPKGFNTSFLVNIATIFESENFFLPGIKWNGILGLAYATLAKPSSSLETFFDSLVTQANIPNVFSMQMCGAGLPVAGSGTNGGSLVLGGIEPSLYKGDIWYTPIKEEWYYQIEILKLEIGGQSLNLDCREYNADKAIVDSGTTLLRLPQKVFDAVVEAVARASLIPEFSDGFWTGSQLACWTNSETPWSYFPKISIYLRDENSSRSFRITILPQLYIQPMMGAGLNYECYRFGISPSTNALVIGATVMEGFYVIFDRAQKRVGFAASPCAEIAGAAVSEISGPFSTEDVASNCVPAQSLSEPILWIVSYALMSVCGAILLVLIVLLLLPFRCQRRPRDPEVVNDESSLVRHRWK
Recombinant CatD, sequence (P07339 65-412): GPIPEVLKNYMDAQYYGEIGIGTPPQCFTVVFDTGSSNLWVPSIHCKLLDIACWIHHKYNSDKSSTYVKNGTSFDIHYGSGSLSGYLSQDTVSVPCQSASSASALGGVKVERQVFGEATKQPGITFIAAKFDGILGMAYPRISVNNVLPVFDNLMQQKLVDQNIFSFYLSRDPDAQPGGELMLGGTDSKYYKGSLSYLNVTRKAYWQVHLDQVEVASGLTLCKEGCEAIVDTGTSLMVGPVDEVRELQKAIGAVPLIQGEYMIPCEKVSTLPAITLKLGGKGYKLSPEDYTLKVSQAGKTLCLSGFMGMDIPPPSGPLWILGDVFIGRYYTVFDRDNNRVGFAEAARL

IC50 (BACE1 [1]; [3])	Compound	IC50 (Recombinant CatD)	IC50 (human recombinant BACE2)	IC50 (BACE1 [2])	IC50 (BACE1 [1])
0.023 µM	Cc1cc(C#Cc2ccc(F)c([C@@]3(CF)N=C(N)S[C@@]4(/C=C/C(=O)N5CCOCC5)C[C@H]43)c2)sn1 [Example 118, (E)-3-((1R,5S,6S)-3-amino-5-(2-fluoro-5-((3-methylisothiazol-5-yl)ethynyl)phenyl)-5-(fluoromethyl)-2-thia-4-azabicyclo[4.1.0]hept-3-en-1-yl)-1-morpholinoprop-2-en-1-one]	26.2 µM	0.017 µM	0.006 µM	
0.06 µM	N#Cc1ccc(C#Cc2ccc(F)c([C@@]3(CF)N=C(N)S[C@@]4(CCC(=O)N5CCOCC5)C[C@H]43)c2)nc1 [Example 119, 6-((3-((1S,5S,6S)-3-amino-5-(fluoromethyl)-1-(3-morpholino-3-oxopropyl)-2-thia-4-azabicyclo[4.1.0]hept-3-en-5-yl)-4-fluorophenyl)ethynyl)nicotinonitrile]	188 µM	0.126 µM	0.049 µM	
0.052 µM	Cc1cc(C#N)cnc1C#Cc1ccc(F)c([C@@]2(CF)N=C(N)S[C@@]3(CCC(=O)N4CCOCC4)C[C@H]32)c1 [Example 120, 6-((3-((1S,5S,6S)-3-amino-5-(fluoromethyl)-1-(3-morpholino-3-oxopropyl)-2-thia-4-azabicyclo[4.1.0]hept-3-en-5-yl)-4-fluorophenyl)ethynyl)-5-methylnicotinonitrile]	190 µM	0.179 µM	0.011 µM	
1.9 µM	N#Cc1cnc(C#Cc2ccc(F)c([C@@]3(CF)N=C(N)S[C@@]4(/C=C/C(=O)N5CCOCC5)C[C@H]43)c2)nc1 [Example 121, 2-((3-((1R,5S,6S)-3-amino-5-(fluoromethyl)-1-((E)-3-morpholino-3-oxoprop-1-en-1-yl)-2-thia-4-azabicyclo[4.1.0]hept-3-en-5-yl)-4-fluorophenyl)ethynyl)pyrimidine-5-carbonitrile]	143 µM	0.047 µM	0.009 µM	
0.328 µM	C#Cc1ccc(F)c([C@@]2(C)N=C(N)S[C@@]3(C(=O)N(C)C)C[C@H]32)c1 [Example 123d, (1S,5S,6S)-3-amino-5-(5-ethynyl-2-fluorophenyl)-N,N,5-trimethyl-2-thia-4-azabicyclo[4.1.0]hept-3-ene-1-carboxamide]	50.5 µM	0.142 µM	0.378 µM	
0.153 µM	N#Cc1cnc(C#Cc2ccc(F)c([C@@]3(CF)N=C(N)S[C@@]4(/C=C/C(=O)N5CCOCC5)C[C@H]43)c2)c(F)c1 [Example 124, 6-((3-((1R,5S,6S)-3-amino-5-(fluoromethyl)-1-((E)-3-morpholino-3-oxoprop-1-en-1-yl)-2-thia-4-azabicyclo[4.1.0]hept-3-en-5-yl)-4-fluorophenyl)ethynyl)-5-fluoronicotinonitrile]	335 µM	0.037 µM	0.049 µM	
0.118 µM	N#Cc1ccc(C#Cc2ccc(F)c([C@@]3(CF)N=C(N)S[C@@]4(Cn5ccnc5)C[C@H]43)c2)nc1 [Example 125, 6-((3-((1S,5S,6S)-1-((1H-imidazol-1-yl)methyl)-3-amino-5-(fluoromethyl)-2-thia-4-azabicyclo[4.1.0]hept-3-en-5-yl)-4-fluorophenyl)ethynyl)nicotinonitrile]	248 µM	8.08 µM	0.583 µM	
0.075 µM	Cc1cc(C#N)cnc1C#Cc1ccc(F)c([C@@]2(C)N=C(N)S[C@@]3(C#N)C[C@H]32)c1 [Example 126, (1S,5S,6S)-3-amino-5-(5-((5-cyano-3-methylpyridin-2-yl)ethynyl)-2-fluorophenyl)-5-methyl-2-thia-4-azabicyclo[4.1.0]hept-3-ene-1-carbonitrile]	268 µM	0.617 µM	0.021 µM	
	Cc1cc(C#N)cnc1C#Cc1ccc(F)c([C@@]2(CF)N=C(N)S[C@@]3(C(=O)N(C)C)C[C@H]32)c1 [Example 127, (1S,5S,6S)-3-amino-5-(5-((5-cyano-3-methylpyridin-2-yl)ethynyl)-2-fluorophenyl)-5-(fluoromethyl)-N,N-dimethyl-2-thia-4-azabicyclo[4.1.0]hept-3-ene-1-carboxamide]	969 µM	0.077 µM	0.002 µM	0.022 µM
	Cc1cc(C#N)cnc1C#Cc1ccc(F)c([C@@]2(C)N=C(N)S[C@@]3(C(=O)N4CCCC4)C[C@H]32)c1 [Example 128, 6-((3-((1S,5S,6S)-3-amino-5-methyl-1-(pyrrolidine-1-carbonyl)-2-thia-4-azabicyclo[4.1.0]hept-3-en-5-yl)-4-fluorophenyl)ethynyl)-5-methylnicotinonitrile]	508 µM	0.423 µM	0.002 µM	0.002 µM
	CN(C)C(=O)[C@]12C[C@H]1[C@@](C)(c1cc(C#Cc3ccc(C#N)cc3)ccc1F)N=C(N)S2 [Example 129, (1S,5S,6S)-3-amino-5-(5-((4-cyanophenyl)ethynyl)-2-fluorophenyl)-N,N,5-trimethyl-2-thia-4-azabicyclo[4.1.0]hept-3-ene-1-carboxamide]	289 µM	0.251 µM	0.007 µM	0.058 µM
	COC[C@]12CC1[C@@](C)(c1cc(C#Cc3ccc(C#N)cn3)ccc1F)N=C(N)S2 (stereo partly drawn) [Example 133, 6-((3-((1S,5S)-3-amino-1-(methoxymethyl)-5-methyl-2-thia-4-azabicyclo[4.1.0]hept-3-en-5-yl)-4-fluorophenyl)ethynyl)nicotinonitrile]	> 400 µM	2.33 µM	0.097 µM	0.059 µM
	COC[C@]12CC1[C@@](C)(c1cc(C#Cc3ncc(C#N)cc3C)ccc1F)N=C(N)S2 (stereo partly drawn) [Example 135, 6-((3-((1S,5S)-3-amino-1-(methoxymethyl)-5-methyl-2-thia-4-azabicyclo[4.1.0]hept-3-en-5-yl)-4-fluorophenyl)ethynyl)-5-methylnicotinonitrile]	> 400 µM	1.47 µM	0.023 µM	0.033 µM

Compound	IC50 (BACE1 [1]; [3])	IC50 (Recombinant CatD)	IC50 (human recombinant BACE2)	IC50 (BACE1 [2])	IC50 (BACE1 [1])
N#Cc1ccc(C#Cc2ccc(F)c([C@@]3(CF)N=C(N)S[C@@]4(/C=C/C(=O)N5CCOCC5)C[C@H]43)c2)cc1 [Example 122, 4-((3-((1R,5S,6S)-3-amino-5-(fluoromethyl)-1-((E)-3-morpholino-3-oxoprop-1-en-1-yl)-2-thia-4-azabicyclo[4.1.0]hept-3-en-5-yl)-4-fluorophenyl)ethynyl)benzonitrile]	0.049 µM	84.3 µM	0.281 µM	0.01 µM	
Cc1cc(C#N)cnc1C#Cc1ccc(F)c([C@@]2(C)N=C(N)S[C@@]3(C(=O)N(C)C)C[C@H]32)c1 [Example 123, (1S,5S,6S)-3-amino-5-(5-((5-cyano-3-methyl-2-pyridinyl)ethynyl)-2-fluorophenyl)-N,N,5-trimethyl-2-thia-4-azabicyclo[4.1.0]hept-3-ene-1-carboxamide]	0.003 µM	236 µM	0.099 µM	0.003 µM	
C#CCOc1ccc(C#Cc2ccc(F)c([C@@]3(C)N=C(N)S[C@@]4(C(=O)N(C)C)C[C@H]43)c2)nc1 [Example 130, (1S,5S,6S)-3-amino-5-(2-fluoro-5-((5-(2-propyn-1-yloxy)-2-pyridinyl)ethynyl)phenyl)-N,N,5-trimethyl-2-thia-4-azabicyclo[4.1.0]hept-3-ene-1-carboxamide]	0.152 µM	926 µM	0.432 µM	0.161 µM	
Cc1cc(OCc2ncco2)cnc1C#Cc1ccc(F)c([C@@]2(C)N=C(N)S[C@@]3(C(=O)N(C)C)C[C@H]32)c1 [Example 131, (1S,5S,6S)-3-amino-5-(2-fluoro-5-((3-methyl-5-(oxazol-2-ylmethoxy)pyridin-2-yl)ethynyl)phenyl)-N,N,5-trimethyl-2-thia-4-azabicyclo[4.1.0]hept-3-ene-1-carboxamide]	0.053 µM	995 µM	2.18 µM	0.041 µM	
CN(C)C(=O)[C@]12C[C@H]1[C@@](C)(c1cc(C#CC3CC3)ccc1F)N=C(N)S2 [Example 132, (1S,5S,6S)-3-amino-5-(5-(cyclopropylethynyl)-2-fluorophenyl)-N,N,5-trimethyl-2-thia-4-azabicyclo[4.1.0]hept-3-ene-1-carboxamide]	0.059 µM	46.8 µM	0.007 µM	0.02 µM	

— patent US10889581B2, “Cyclopropyl fused thiazine derivatives as beta-secretase inhibitors and methods of use” (AMGEN INC., priority 2016, dated 2021)
